Patent publication US10611764B2 (Wisconsin Alumni Research Foundation, priority 2017, dated 2020)
Residue numbers refer to the chain shown, from its start. Where two headings read alike, the source gives them in different places.

Key:
[1] = target: T1, mouse AHR (mAHR B1-allele) (Mus musculus, UniProt P30561, M589L/N533S/P471L); assay: cell-based; details: for biological response, eight-hour versus four-hour induction: 8 h vs 4 h
T1 sequence (P30561 10-805 P471L/N533S/M589L): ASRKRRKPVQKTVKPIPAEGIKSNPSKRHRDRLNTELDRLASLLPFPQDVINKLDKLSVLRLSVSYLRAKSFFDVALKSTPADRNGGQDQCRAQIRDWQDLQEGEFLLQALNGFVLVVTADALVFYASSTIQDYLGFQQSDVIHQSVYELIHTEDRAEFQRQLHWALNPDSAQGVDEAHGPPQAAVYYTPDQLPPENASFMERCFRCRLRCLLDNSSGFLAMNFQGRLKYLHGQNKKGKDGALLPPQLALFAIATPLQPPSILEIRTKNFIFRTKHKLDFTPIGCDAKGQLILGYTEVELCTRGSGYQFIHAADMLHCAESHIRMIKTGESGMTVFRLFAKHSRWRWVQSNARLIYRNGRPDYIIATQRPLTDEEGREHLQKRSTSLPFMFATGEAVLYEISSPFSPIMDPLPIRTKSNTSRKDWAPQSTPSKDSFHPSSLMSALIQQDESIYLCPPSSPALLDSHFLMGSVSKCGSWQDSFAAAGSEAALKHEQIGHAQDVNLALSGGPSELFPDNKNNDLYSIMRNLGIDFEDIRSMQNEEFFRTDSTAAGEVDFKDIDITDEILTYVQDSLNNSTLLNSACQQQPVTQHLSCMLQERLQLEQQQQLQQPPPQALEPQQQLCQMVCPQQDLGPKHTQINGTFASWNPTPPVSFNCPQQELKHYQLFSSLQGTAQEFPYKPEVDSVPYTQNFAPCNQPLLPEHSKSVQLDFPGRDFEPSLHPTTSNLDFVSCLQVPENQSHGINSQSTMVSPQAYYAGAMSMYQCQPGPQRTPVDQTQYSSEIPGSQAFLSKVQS
Method: The wild type and mutant mAHR were cloned into the XhoI/SalI cloning sites of pTARGET (Promega, Madison, Wis.) using routine PCR and molecular cloning procedures using the pSport-mAHR plasmid (PL65) as template (Dolwick, Swanson et al. 1993). For recombinant expression of mAHR, COS-1 cells were cultured in 6 cm dishes and transfected with 2 μg of wild-type or mutant mAHR expression vector. Twenty-four hours after transfection, cells were collected, and the whole cell extracts were prepared by celLytic M reagent (Sigma-Aldrich, St Louis, Mo.). 100 μg of whole cell extract was analyzed by western blot using antibodies that specifically recognize the mAHR (bear-2) and β-actin (Sigma).
COS-1 cells were cultured in 96-well plates and transiently transfected with pTarget vector containing the expression cassette of wild-type or mutant mAHR, or empty vector (3 ng), together with pGudLu6.1 DREs-driven luciferase reporter vector (14 ng) (Han, Nagy et al. 2004) and TK-renilla luciferase vector (3 ng) (Invitrogen, Carlsbad Calif.). […] The expressed luciferase activity was measured by ENSPIRE plate reader (Perkin Elmer, USA). Data analysis and simulation of dose response curves were performed using GraphPad Prism 5 (GraphPad software Inc., La Jolla, Calif.). The experiments were performed in triplicate and repeated at least three times. Representative results of one repeat are shown as mean±SEM.

[2] = target: T2, mAHR genetic variant A375V (D-allele) (Mus musculus, UniProt P30561, A375V/F348L/M589L/N533S/P471L); assay: Luciferase reporter gene assay, mAHR genetic variant A375V (D-allele); format: cell-based; details: compared with B-allele
T2 construct: expressed in transfected cells; host or cells: COS-1
T2 sequence (P30561 10-805 F348L/A375V/P471L/N533S/M589L): T1 sequence (P30561 10-805 P471L/N533S/M589L) with F339L, A366V
Description: Physiological relevant ligands of the AHR would be expected to activate polymorphic receptors within species and structurally variant receptors across species. As a model of this idea an important endogenous AHR ligands would be expected to activate AHR genetic variants arising from the murine Ahr B1 and D alleles. These two well-known genetic variants, harbor a key sequence variation at residue 375, with alanine in the B1 allele, and valine in the D allele (A375V). Residue 375 is located near the medial position of the AHR-LBD. […] These observations support the notion that AHR genetic variants might function through these endogenous ligands to control normal physiological functions.

mAHR H285A mutant = assay: Luciferase reporter gene assay, mutant mAHR H285A in COS-1 cells; format: cell-based, mouse; details: relative to WT mAHR
mAHR Q377A mutant = target: T3, mAHR Q377A mutant (Mus musculus, UniProt P30561, Q377A); assay: Luciferase reporter gene assay, mutant mAHR Q377A in COS-1 cells; format: cell-based; details: relative to WT mAHR
T3 construct: expressed in transfected cells; host or cells: COS-1
T3 sequence (P30561 10-805 Q377A limits assumed): T1 sequence (P30561 10-805 P471L/N533S/M589L) with Q368A, L462P, S524N, L580M

[3] = test system: mutant AHR, F289K, F281K, I373K, and L347R; assay: Luciferase reporter gene assay, mAHR hydrophobic pocket mutants in COS-1 cells; format: cell-based, mouse
[4] = test system: A375V variant of AHR (D allele); details: Chang 1993, Ema 1994, Poland 1994; cited from earlier work
AHR = target: T4, AHR (Rattus norvegicus, UniProt P41738); details: Rannug, Rannug et al. 1987; cited from earlier work
T4 sequence (P41738 10-853): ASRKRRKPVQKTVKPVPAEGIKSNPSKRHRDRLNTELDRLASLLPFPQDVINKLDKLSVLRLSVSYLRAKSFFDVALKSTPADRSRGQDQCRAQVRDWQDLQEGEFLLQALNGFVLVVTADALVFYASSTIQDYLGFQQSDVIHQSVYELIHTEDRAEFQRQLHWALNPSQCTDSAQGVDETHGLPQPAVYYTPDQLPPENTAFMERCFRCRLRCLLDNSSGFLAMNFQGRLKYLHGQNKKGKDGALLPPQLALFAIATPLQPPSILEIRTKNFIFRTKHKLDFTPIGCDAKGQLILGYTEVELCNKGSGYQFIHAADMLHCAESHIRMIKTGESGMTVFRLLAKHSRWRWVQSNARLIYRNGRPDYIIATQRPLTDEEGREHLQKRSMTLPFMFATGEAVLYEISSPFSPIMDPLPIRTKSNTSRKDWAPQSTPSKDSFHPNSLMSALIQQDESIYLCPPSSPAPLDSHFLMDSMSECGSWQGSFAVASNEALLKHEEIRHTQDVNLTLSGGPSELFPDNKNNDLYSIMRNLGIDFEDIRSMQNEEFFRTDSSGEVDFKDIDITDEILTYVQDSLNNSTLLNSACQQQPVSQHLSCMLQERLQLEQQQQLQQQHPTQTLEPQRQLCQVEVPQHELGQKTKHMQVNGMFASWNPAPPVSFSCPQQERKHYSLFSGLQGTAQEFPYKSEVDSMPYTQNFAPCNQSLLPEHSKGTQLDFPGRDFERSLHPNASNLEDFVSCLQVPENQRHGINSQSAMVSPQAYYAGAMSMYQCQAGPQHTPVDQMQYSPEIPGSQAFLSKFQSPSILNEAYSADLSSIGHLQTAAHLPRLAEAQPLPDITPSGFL

MH1C1 rat hepatoma cells = MH1C1 rat hepatoma cells exposed for three hours; cited from earlier work

With `c1ccc2c(c1)NC1=C3C2=NCC[C@H]3c2ccccc2N1` [274 ion fraction] the AC50 [1] was about 5 nM.

With `c1ccc2c(c1)cc1ccc3cccc4ccc2c1c34` [BaP, benzo[a]pyrene] the “activation of the A375V D-allele” value [2] was “barely stimulate”.

With `Nc1ccccc1C(=O)CC(N)C(=O)O` (centres unmarked) [kynurenine] the “effect of H285A mutation on AHR induction activity” value (mAHR H285A mutant) was “completely disrupts”, the “fold increase of activity by incubation or long-term storage” value [1] was 100-1000 fold and the “biological response, eight-hour versus four-hour induction” value ([1]; COS-1 cells) was “higher biological response”. The EC50 ([1]; EC50 of AHR activation, COS-1 cells expressing mAHR, luciferase reporter, 4 hours) was about 13000 nM, the “fold increase of AHR induction by incubation” value ([1]; after 18 days at room temperature) was about 100 fold and the “fold increase of AHR induction by incubation” value ([1]; after three days at 37° C.) was about 100 fold. The “maximum activity, higher than BaP” value ([1]; relative to BaP, FIG. 2A) was 60%, the “maximum AHR activation, higher than that induced by FICZ” value ([1]; relative to FICZ, FIG. 1A) was about 40% and the “effect of Q377A mutation on AHR induction activity” value (mAHR Q377A mutant) was “barely affected”. For the same compound, the “effect of F289K and F281K mutations on responsiveness of AHR” value ([3]; F289K, F281K) was “completely abolished”, the “effect of mutation of other hydrophobic residues to lysine or arginine on activity” value ([3]; I373K, L347R, FIG. 1c) was “completely abolished” and the “activation of the A375V D-allele” value [2] was “readily activate”.

`Nc1ccccc1C(=O)CC(N)C(=O)O` (centres unmarked) [kynurenine (3 d, 6 m)] gave an EC50 [1] of 2.7 nM.

In the case of `Clc1cc2c(cc1Cl)Oc1cc(Cl)c(Cl)cc1O2` [TCDD, 2,3,7,8-tetrachlorodibenzo-p-dioxin], the “binding to the A375V variant” value [4] is given as “weakened binding”.

With 6-formylindolo [3,2-b] carbazole [FICZ] the “effect of H285A mutation on AHR induction activity” value (mAHR H285A mutant) was “remains partially receptive”, the “biological response, eight-hour versus four-hour induction” value ([1]; COS-1 cells) was “slightly reduced” and the “activity in the 20-hour induction” value ([1]; COS-1 cells, 20 h vs 8 h and 4 h) was “further reduced”. The EC50 ([1]; read-out: EC50 of AHR activation, COS-1 cells expressing mAHR, luciferase reporter, 4 hours) was 0.036 nM, the Kd (AHR) was 0.07 nM and the EC50 (MH1C1 rat hepatoma cells) was 0.034 nM.

For `O=c1cc[nH]c2ccccc12` [4(1H)-Quinolinone (4-HQ), 4(1H)-Quinolinone], the “activity in AHR induction (in words)” value ([1]; known chemical derivatives of kynurenine, FIG. 10b) was “did not show any activity”.
